Series [1] is described as follows: AST/ALT assay of mice serum. It is filed as in vivo. The protocol:
Post-euthanisation, the mice serum was analysed for AST/ALT ([…]) levels in order to observe if HPβCD treatment had any toxic effects on liver of treated mice (FIG. 37). The AST/ALT ratio gives an estimate of liver toxicity or damage. […] The AST/ALT ratio for all the early and intermediate groups was not different from the untreated group, was under the recommended ratio of 2 and the values were below the reference range (40 U/L) except for AST levels in the late group. In latter groups, the ratio of AST/ALT was 2.2 which was slightly above the recommended limit but was not found to be statistically different from the untreated group. […] In this regard review FIG. 37.

For a further series, the system named is MDA-MB-231 cells. Nature of the series: Mice xenograft, triple negative breast cancer. It is filed as in vivo, Nude Mice, MF-1 strain. On the procedure:
Since the potency of HPβCD against breast cancer was established in our in vitro assays, a thorough investigation in a mice model was conducted (Nude Mice. MF-1 strain). MCF-7 and MDA-MB-231 cells were injected in 32 mice (16 for each cell type) and after tumour development, was treated with HPβCD (3000 mg/kg b.w.). Thrice a week dose treatment plan was followed throughout the study.
To examine if HPβCD can be used as a future anti-breast cancer drug, mice xenografts were prepared. MCF7 cells (5 million) cells were injected in 16 mice with weekly β-estradiol supplementation. The study for triple negative induced breast cancer (MDA-MB-231) is complete. Up to 4 million cells were injected in 16 mice. This was subdivided in three more groups namely: Late stage, intermediate stage and early stage estrogen negative cancer. 4 mice were grouped as untreated (not receiving HPβCD), 4 for treated (late stage), 3 for treated (intermediate stage) and 3 for treated (early stage).
This is because MDA-MB-231 cells are extremely aggressive in nature and that is the reason there is any adequate treatments except the side effects prone to chemotherapy. These 4 mice had to be euthanized at this point because of humane end points. In the late stage treated group, the treatment commenced when the size of the tumour was in between 900 mm^3 to 1350 mm^3 (FIG. 30 A, B, C).
In the intermediate stage group (n=3), the treatment commenced when the size of the tumours reached […]. Again, after 10 doses of HPβCD treatment we saw the average size of the tumours went down to […] which is a staggering 94% decrease (FIG. 31 B, C) as compared to the untreated group. This was remarkable considering how invasive MDA-MB-231 cells are and HPβCD's ability to tame them was quite phenomenal. Finally, in the early stage group (n=3), the treatment commenced when the tumour size was 20 mm^3 (FIG. 33 A. B). […] These 3 mice were then kept for a period of 4 weeks to check for relapse of tumour because estrogen negative tumours have an extreme propensity to recur.

For the next series, the system named is SREBP-1 in MRC-5 cells. Nature of the series: Western blotting for SREBP-1. It counts as cell-based, human. The note with it: MRC-5, 10 mM HPβCD, 24 hrs. The protocol:
(§1) In order to delve in to more detailed mechanisms of cholesterol depletion a western blotting analysis was conducted for SREBP-1 protein, which is a known transcription factor involved in cholesterol homeostasis. Lysates from MCF7, MDA-MB-231 and MRC-5 cells were used. 10 mM HPβCD was treated for 24 hrs. SREBPs are key elements responsible for the gene expression of vital enzymes involved in fatty acid synthesis which includes SREBP 1 and SREBP 2. […] In order to investigate this characteristic feature of SREBPs a western blot analysis was conducted to see if HPβCD treatment does alter SREBP levels.
In general terms: A western blot detects proteins with antibodies after separation by electrophoresis.

The next series concerns SREBP-1 in MCF7 cells. Put plainly: Western blotting for SREBP-1. It is filed as cell-based, human. The conditions noted are these: MCF7, 10 mM HPβCD, 24 hrs. On the procedure:
as §1

Series [2] concerns SREBP-1 in MDA-MB-231 cells. Nature of the series: Western blotting for SREBP-1. It counts as cell-based, human. The note with it: MDA-MB-231, 10 mM HPβCD, 24 hrs. The protocol:
as §1

The next series relates to MDA-MB-231 tumours. Nature of the series: Hematoxylin and eosin staining of xenograft tumours. It is filed as in vivo, mice. The text has this:
Hematoxylin and cosin staining of mice was undertaken in untreated, intermediate and late stage MDA-MB-231 mice as is shown in FIG. 36.
The individual cells are markedly pleomorphic and have raised nuclear to cytoplasmic ratios. The neoplastic cells have irregular nuclear borders and the cells have vesicular chromatic with one to multiple prominent nucleoli. Brisk mitotic activity is evident. Areas of perineural and lymphovascular invasion are however, not documented.

Setting [3] is: intermediate stage, 3000 mg/kg b.w., 10 doses.
[4] abbreviates: late stage treated mice, one value per case.

Experimental findings from patent US20220096529A1, “2-HYDROXYPROPYL-BETA-CYCLODEXTRIN (HPBETACD) FOR USE IN THE TREATMENT OF BREAST CANCER” (UNIVERSITY OF THE WITWATERSRAND, JOHANNESBURG, priority 2019, published 2022) are described below.

“And” between values parts separate entries of the source, which are not always exact repeats. Identical values can stand only once. “Also recorded” adds a separate entry of the source.

Take 2-hydroxypropyl-β-cyclodextrin [HPβCD]: the AST/ALT ratio in series [1] (early and intermediate groups) was less than 2. Also, in series [1] (late group, mice serum post-euthanisation), the “ratio of AST/ALT” value is recorded as 2.2. In addition, in series [1] (mouse, in vivo, 3000 mg/kg), the liver toxicity entry was “caused no toxicity”. In addition, in the series with MDA-MB-231 cells (early stage (20 mm^3 at start), 3000 mg/kg b.w., 10 doses, 3000 mg/kg), the tumour outcome is recorded as “completely healed; also recorded: Complete healing of tumour”. Further, in the series with MDA-MB-231 cells (setting [3]), the “average size of the tumours” value stood at 784.18 mm3 and the “tumour reduction compared to the untreated group” value is on record as 94%. Also, the “tumour reduction compared to the untreated group” value in the series on MDA-MB-231 cells (late stage, 3000 mg/kg b.w. intraperitoneally, 10 doses) was 73.9%. In addition, the relapse of tumour result in the series on MDA-MB-231 cells (three healed early stage mice, 4 weeks) was “no recurrence of the tumour; also recorded: no relapse at all”. The “SREBP-1 activity compared to untreated lysate” value in the series on SREBP-1 in MRC-5 cells is “remained equal”. For the same substance, in the series with SREBP-1 in MCF7 cells, the “SREBP-1 protein level compared to untreated lysate” value is on record as “about five times less activity of SREBP-1”. In addition, the “SREBP-1 protein level compared to untreated lysate” value in series [2] is “about two and a half times less activity of SREBP-1”. Further, in the series with MDA-MB-231 tumours (intermediate group), the “necrosis, share of the total tumour examined” value was 6-10%. In addition, the MITOSES in the series on MDA-MB-231 tumours (intermediate stage treated mice, one value per case) is 70 Atypical and 59 Atypical and 67 Atypical. Also, in the series on MDA-MB-231 tumours (intermediate stage treated mice, one value per case (INTM 13, 31, 32)), the NECROSIS entry is listed as “Focal necrosis; also recorded: Occasional; also recorded: Multiple pockets”. Besides, in the series with MDA-MB-231 tumours (late group), the “apoptotic cells compared to the intermediate group” value amounted to 2.9 times, the “increase in number of apoptotic cells compared to the untreated group” value is reported as approximately 1.7 fold and the “mitotic activity lower than in the other two groups” value was “approximately 1.1 times”. In the series on MDA-MB-231 tumours (late group, case Late 12), the “increase in necrosis compared to the untreated group” value is recorded as approximately 4 fold and the “necrosis, share of the tissue examined” value is recorded as “up to 20%”. Also, in the series on MDA-MB-231 tumours (setting [4]), the “APOPTOSIS/ 10 HPF” value is 21 and 30 and 39 and 32 and 27; the “EPID/ MUSCLE INV.” value is “No muscle present; also recorded: No muscle or epidermis; also recorded: Muscle invasion”; the MITOSES is 60 and 65 and 57 and 59 and 50. Also, the NECROSIS result with MDA-MB-231 tumours (late stage treated mice, one value per case (LATE 8 (1), 8 (2), 11, 12, 14)) was “Necrosis seen”.
